For assay [1], the target named is T1, ΔF508-CFTR (Homo sapiens, UniProt P13569, DEL508-508).
T1 construct: host or cells: CFBE41o-, doxycycline-inducible
Nature of the assay: CFTR cell surface levels using HRP-tagged ΔF508-CFTR expressing CFBE cells, in the presence of a co-corrector. It is filed as cell-based. Conditions: HRP-tagged ΔF508-CFTR expressing CFBE cells, in the presence of 3 μM co-corrector; for EC50: read-out: EC50. In outline:
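Cells were seeded with 0.5 μg/mL doxycycline and held 68 h at 37 °C. Test compounds plus 3 μM co-corrector (final 0.1% DMSO) were then added for 20 h at 33 °C. Washed cells received HRP substrate, and luminescence was normalized between DMSO and 3 μM co-corrector controls.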

Assay [2] deals with T1, ΔF508-CFTR. Nature of the assay: CFTR cell surface levels using HRP-tagged ΔF508-CFTR expressing CFBE cells, intrinsic corrector capacity. It is filed as cell-based. Conditions: for EC50: read-out: EC50. In outline:
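Here the cells express ΔF508-CFTR with horseradish peroxidase inserted in extracellular loop 4, so only rescued channel at the surface gives luminescent signal. Compounds act on their own, 20 h at the reduced temperature of 33 °C; values are percent activity relative to DMSO and a 3 μM corrector.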

The mark [3] stands for this setting: HRP-tagged ΔF508-CFTR expressing CFBE cells, intrinsic corrector capacity (no co-corrector), 33° C., 20 hours.
Setting [4] is: HRP-tagged ΔF508-CFTR CFBE41o- cells, compounds alone (intrinsic corrector capacity), 20 hours at 33° C., positive control 3 μM corrector.
The mark [5] stands for this setting: HRP-tagged ΔF508-CFTR CFBE41o- cells, compounds alone (intrinsic corrector capacity), 20 hours at 33° C.

In general, EC50 refers to the concentration giving half of the maximal effect.

T1 sequence (P13569 with tags, fused parts or gaps DEL508-508): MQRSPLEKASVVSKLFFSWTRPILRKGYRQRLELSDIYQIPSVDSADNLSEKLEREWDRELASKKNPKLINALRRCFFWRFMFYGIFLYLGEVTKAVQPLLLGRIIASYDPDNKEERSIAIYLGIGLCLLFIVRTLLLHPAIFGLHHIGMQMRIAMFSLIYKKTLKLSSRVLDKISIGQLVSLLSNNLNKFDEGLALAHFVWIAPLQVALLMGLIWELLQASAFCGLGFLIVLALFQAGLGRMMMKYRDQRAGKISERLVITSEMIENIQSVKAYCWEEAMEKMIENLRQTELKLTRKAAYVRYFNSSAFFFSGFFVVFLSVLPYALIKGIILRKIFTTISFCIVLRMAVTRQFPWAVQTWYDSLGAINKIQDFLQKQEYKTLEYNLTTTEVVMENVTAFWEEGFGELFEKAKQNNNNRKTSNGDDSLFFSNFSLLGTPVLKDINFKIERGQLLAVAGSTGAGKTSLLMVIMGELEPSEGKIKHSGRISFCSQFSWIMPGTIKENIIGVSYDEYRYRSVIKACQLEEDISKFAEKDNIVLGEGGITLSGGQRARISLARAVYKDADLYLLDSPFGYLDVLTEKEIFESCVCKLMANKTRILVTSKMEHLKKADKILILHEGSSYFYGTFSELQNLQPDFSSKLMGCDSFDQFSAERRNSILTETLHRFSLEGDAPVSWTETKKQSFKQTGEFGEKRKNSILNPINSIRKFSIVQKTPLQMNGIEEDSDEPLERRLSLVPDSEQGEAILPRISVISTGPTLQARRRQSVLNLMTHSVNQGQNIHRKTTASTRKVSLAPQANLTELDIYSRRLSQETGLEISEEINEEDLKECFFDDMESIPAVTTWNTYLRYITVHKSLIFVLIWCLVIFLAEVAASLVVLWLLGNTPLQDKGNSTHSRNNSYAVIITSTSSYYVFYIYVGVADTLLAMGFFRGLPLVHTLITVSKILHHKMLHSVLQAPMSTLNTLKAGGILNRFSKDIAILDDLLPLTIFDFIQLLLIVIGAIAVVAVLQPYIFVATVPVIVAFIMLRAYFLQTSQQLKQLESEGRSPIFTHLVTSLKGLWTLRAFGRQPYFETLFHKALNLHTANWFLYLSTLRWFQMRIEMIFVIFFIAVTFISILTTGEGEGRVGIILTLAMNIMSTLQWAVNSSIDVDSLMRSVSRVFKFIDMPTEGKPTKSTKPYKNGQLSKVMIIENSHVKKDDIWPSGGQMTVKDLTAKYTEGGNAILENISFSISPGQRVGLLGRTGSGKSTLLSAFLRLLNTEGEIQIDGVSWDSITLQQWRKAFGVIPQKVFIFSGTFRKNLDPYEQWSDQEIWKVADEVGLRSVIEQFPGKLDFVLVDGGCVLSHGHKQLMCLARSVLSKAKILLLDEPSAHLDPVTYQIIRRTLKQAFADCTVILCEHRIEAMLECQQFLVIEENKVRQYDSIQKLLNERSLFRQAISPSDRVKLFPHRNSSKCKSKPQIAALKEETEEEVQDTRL

Turning to `O=C(O)c1cc(OC2CN(C3CCCCC3)C2)c2c(C3CCC3)nn(-c3ccccc3)c2n1` [compound 599, 3-cyclobutyl-4-[(1-cyclohexylazetidin-3-yl)oxy]-1-phenyl-1H-pyrazolo[3,4-b]pyridine-6-carboxylic acid], on ΔF508-CFTR [1], the “% Activation” value is 248.4% and the EC50 came out at 376 nM. In addition, at ΔF508-CFTR [2] (setting [3]), the “% Activation” value is recorded as 81.59% and the EC50 was 357 nM.
For `CN(c1ccc(-c2cc(C(=O)O)nc3c2c(C2CCC2)nn3-c2cccc(N3CCCC3)c2)cn1)C1CCOCC1` [compound 252, 3-cyclobutyl-4-{6-[methyl(oxan-4-yl)amino]pyridin-3-yl}-1-[3-(pyrrolidin-1-yl)phenyl]-1H-pyrazolo[3,4-b]pyridine-6-carboxylic acid], the entries for the “% Activation” value at ΔF508-CFTR [1] and on ΔF508-CFTR [2] (setting [4]) were 630.25% and 398.4%, respectively. The figures for the EC50 at ΔF508-CFTR [1] and at ΔF508-CFTR [2] (setting [5]) were 505 nM and 698 nM, respectively.
Taken in the same sequence, the figures for `CC(C)c1nn(C2CCCCC2)c2nc(C(=O)O)cc(-c3cnc(N(C)C4CCN(C(=O)OC(C)(C)C)CC4)nc3)c12` [compound 374, 4-(2-{[1-(tert-butoxycarbonyl)piperidin-4-yl](methyl)amino}pyrimidin-5-yl)-1-cyclohexyl-3-(propan-2-yl)-1H-pyrazolo[3,4-b]pyridine-6-carboxylic acid] were 297.35%, 114.2%, 464 nM and 595 nM.
For `Cc1cccc(-n2nc(C(C)C)c3c(N4CCC5(C4)CC5(F)F)cc(C(=O)O)nc32)c1` (stereo not shown) [compound 271, 4-(1,1-difluoro-5-azaspiro[2.4]heptan-5-yl)-1-(3-methylphenyl)-3-(propan-2-yl)-1H-pyrazolo[3,4-b]pyridine-6-carboxylic acid], in that order: 323.5%, 144.2%, 396 nM and 924 nM.
For `COCCN(C)c1cc(C(=O)O)nc2c1c(C(C)C)nn2-c1cccc(C)c1` [compound 209, 4-[(2-methoxyethyl)(methyl)amino]-1-(3-methylphenyl)-3-(propan-2-yl)-1H-pyrazolo[3,4-b]pyridine-6-carboxylic acid], in that order: 411.9%, 165.6%, 787 nM and 1360 nM.
Take `CC(C)N1CCC(Oc2cc(C(=O)O)nc3c2c(C2CCC2)nn3-c2ccccc2)CC1` [compound 647, 3-cyclobutyl-1-phenyl-4-{[1-(propan-2-yl)piperidin-4-yl]oxy}-1H-pyrazolo[3,4-b]pyridine-6-carboxylic acid]: on ΔF508-CFTR [1], the “% Activation” value amounted to 301.3% and the 50% effective concentration (EC50) turned out to be 2010 nM. On ΔF508-CFTR [2] (setting [3]), the “% Activation” value was 119.9% and the EC50 is 2180 nM.
Consider `Cc1nn(-c2ccccc2)c2nc(C(=O)O)cc(-c3ccc(N(C)C4COC4)cc3)c12` [compound 140, 3-methyl-4-{4-[methyl(oxetan-3-yl)amino]phenyl}-1-phenyl-1H-pyrazolo[3,4-b]pyridine-6-carboxylic acid], for which the figures for the “% Activation” value at ΔF508-CFTR [1] and on ΔF508-CFTR [2] (setting [4]) were 362.05% and 178%, respectively. The EC50 at ΔF508-CFTR [1] came out at 941 nM; on ΔF508-CFTR [2] (setting [5]), 1500 nM.
`O=C(O)c1cc(N2C[C@H](O)[C@@H](O)C2)c2c(C3CCC3)nn(-c3ccccc3)c2n1` [compound 446, 3-cyclobutyl-4-[(3S,4S)-3,4-dihydroxypyrrolidin-1-yl]-1-phenyl-1H-pyrazolo[3,4-b]pyridine-6-carboxylic acid]: at ΔF508-CFTR [1], the “% Activation” value came to 171.35% and the EC50 is 3340 nM. At ΔF508-CFTR [2] (setting [3]), the “% Activation” value was determined as 20.695% and the EC50 was above 10000 nM.
Turning to `Cc1nn(-c2ccccc2)c2nc(C(=O)O)cc(-c3ccc(N4CCC5(CC4)COC5)cc3)c12` [compound 154, 3-methyl-4-[4-(2-oxa-7-azaspiro[3.5]nonan-7-yl)phenyl]-1-phenyl-1H-pyrazolo[3,4-b]pyridine-6-carboxylic acid], the results for the “% Activation” value on ΔF508-CFTR [1] and on ΔF508-CFTR [2] (setting [4]) were 353.7% and 153.9%, respectively. In addition, the values for the concentration for a half-maximal effect (EC50) at ΔF508-CFTR [1] and at ΔF508-CFTR [2] (setting [5]) were 748 nM and 918 nM, respectively.
For `Cc1cccc(-n2nc(C(C)C)c3c(N4CCC5C(CCN5C(=O)OC(C)(C)C)C4)cc(C(=O)O)nc32)c1` (stereo not shown) [compound 234, 4-[1-(tert-butoxycarbonyl)octahydro-5H-pyrrolo[3,2-c]pyridin-5-yl]-1-(3-methylphenyl)-3-(propan-2-yl)-1H-pyrazolo[3,4-b]pyridine-6-carboxylic acid], the entries for the “% Activation” value at ΔF508-CFTR [1] and at ΔF508-CFTR [2] (setting [4]) were 510.27% and 292.97%, respectively. Also, the EC50 at ΔF508-CFTR [1] was 368 nM; on ΔF508-CFTR [2] (setting [5]), 464 nM.
Regarding `O=C(O)c1cc(OC2CCOCC2)c2c(C3CCC3)nn(-c3ccccc3)c2n1` [compound 579, 3-cyclobutyl-4-[(oxan-4-yl)oxy]-1-phenyl-1H-pyrazolo[3,4-b]pyridine-6-carboxylic acid], on ΔF508-CFTR [1], the “% Activation” value worked out at 263.5% and the EC50 was found to be 267 nM. Besides, at ΔF508-CFTR [2] (setting [3]), the “% Activation” value came to 97.37% and the EC50 turned out to be 238 nM.
For `CC(C)N1CCN(c2ccc(-c3cc(C(=O)O)nc4c3c(C3CCC3)nn4C3CCCCC3)cc2)CC1` [compound 867, 3-cyclobutyl-1-cyclohexyl-4-{4-[4-(propan-2-yl)piperazin-1-yl]phenyl}-1H-pyrazolo[3,4-b]pyridine-6-carboxylic acid], in that order: 290.65%, 317 nM, 125.2% and 1410 nM.
With `CC(C)Oc1nn(C2CCCCC2)c2nc(C(=O)O)cc(-c3ccc(N4CCN(C)CC4)cc3)c12` [compound 883, 1-cyclohexyl-4-[4-(4-methylpiperazin-1-yl)phenyl]-3-[(propan-2-yl)oxy]-1H-pyrazolo[3,4-b]pyridine-6-carboxylic acid], at ΔF508-CFTR [1], the “% Activation” value amounted to 380.9% and the EC50 is 238 nM. Also, on ΔF508-CFTR [2] (setting [3]), the “% Activation” value stood at 160.6% and the concentration giving a half-maximal response (EC50) was determined as 330 nM.
On to `COC1CCCN(C2CCN(c3cc(C(=O)O)nc4c3c(C3CCC3)nn4-c3ccc(F)cc3)CC2)C1` (stereo not shown) [compound 875, 3-cyclobutyl-1-(4-fluorophenyl)-4-(3-methoxy[1,4′-bipiperidin]-1′-yl)-1H-pyrazolo[3,4-b]pyridine-6-carboxylic acid], for which, at ΔF508-CFTR [1], the “% Activation” value is given as 450.3% and the EC50 is 819 nM. Also, on ΔF508-CFTR [2] (setting [3]), the “% Activation” value is listed as 270.7% and the EC50 stood at 1600 nM.
For `CCC1(F)CN(c2cc(C(=O)O)nc3c2c(C2CCC2)nn3-c2ccccc2)C1` [compound 530, 3-cyclobutyl-4-(3-ethyl-3-fluoroazetidin-1-yl)-1-phenyl-1H-pyrazolo[3,4-b]pyridine-6-carboxylic acid], in that order: 254.15%, 542 nM, 90.17% and 718 nM.
Take `COC(=O)N1CC(c2nn(-c3ccccc3)c3nc(C(=O)O)cc(-c4ccc(N5CCOCC5)cc4)c23)C1` [compound 86, 3-[1-(methoxycarbonyl)azetidin-3-yl]-4-[4-(morpholin-4-yl)phenyl]-1-phenyl-1H-pyrazolo[3,4-b]pyridine-6-carboxylic acid]: the “% Activation” value came to 300.25% at ΔF508-CFTR [1] and 129.75% at ΔF508-CFTR [2] (setting [4]). Moreover, the EC50 at ΔF508-CFTR [1] was determined as 2550 nM; on ΔF508-CFTR [2] (setting [5]) it was 3340 nM.

The record behind these values is patent US9796711B2, “Substituted pyrazolo[3,4-b]pyridin-6-carboxylic acids and method of use” (AbbVie S.àr.l., priority 2015, dated 2017).
